Results published in ChEMBL document CHEMBL1127128, “CGS 27830, a potent nonpeptide endothelin receptor antagonist” (Bioorg Med Chem Lett, 1993).

Tests used:
Endothelin-1 receptor [1] = molecular target: T1, Endothelin-1 receptor (Sus scrofa, UniProt Q29010); experiment: Tested for its inhibitory activity against Endothelin A receptor
T1 sequence (Q29010 whole entry): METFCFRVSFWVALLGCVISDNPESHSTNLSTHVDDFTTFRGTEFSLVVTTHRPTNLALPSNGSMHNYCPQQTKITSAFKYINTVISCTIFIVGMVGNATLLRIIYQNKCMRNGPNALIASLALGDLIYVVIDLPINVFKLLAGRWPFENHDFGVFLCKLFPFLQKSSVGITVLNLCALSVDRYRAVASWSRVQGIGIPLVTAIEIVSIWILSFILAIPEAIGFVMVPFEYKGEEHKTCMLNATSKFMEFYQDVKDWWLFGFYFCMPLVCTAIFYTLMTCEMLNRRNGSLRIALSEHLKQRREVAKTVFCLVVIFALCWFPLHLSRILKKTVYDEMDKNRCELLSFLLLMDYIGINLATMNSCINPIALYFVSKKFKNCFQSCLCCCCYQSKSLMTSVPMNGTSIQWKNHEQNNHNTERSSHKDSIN

[2] = molecular target: T2, Endothelin receptor type B (Rattus norvegicus, UniProt P21451); experiment: Tested for its inhibitory activity against Endothelin B receptor
T2 sequence (P21451 whole entry): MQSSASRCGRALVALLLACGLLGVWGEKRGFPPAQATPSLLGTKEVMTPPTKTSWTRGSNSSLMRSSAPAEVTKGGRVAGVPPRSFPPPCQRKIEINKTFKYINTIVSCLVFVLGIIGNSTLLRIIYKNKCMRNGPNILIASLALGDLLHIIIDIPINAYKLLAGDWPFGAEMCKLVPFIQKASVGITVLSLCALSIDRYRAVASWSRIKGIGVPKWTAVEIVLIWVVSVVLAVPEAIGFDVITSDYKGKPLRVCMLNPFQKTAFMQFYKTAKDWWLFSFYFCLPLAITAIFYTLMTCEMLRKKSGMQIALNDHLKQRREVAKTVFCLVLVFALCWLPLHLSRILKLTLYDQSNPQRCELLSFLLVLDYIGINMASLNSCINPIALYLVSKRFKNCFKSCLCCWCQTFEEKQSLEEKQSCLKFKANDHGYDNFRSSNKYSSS

[3] = molecular target: T2, Endothelin receptor type B; experiment: Tested for its inhibitory activity against Endothelin B receptor; Compound was inactive
Endothelin-1 receptor [4] = molecular target: T1, Endothelin-1 receptor; experiment: Tested for its inhibitory activity against Endothelin A receptor; inactive
[5] = molecular target: T2, Endothelin receptor type B; experiment: Tested for its ability to inhibit the binding of [125I]ET1 to the Endothelin B receptor in rat cerebellum membranes.; assay type: cell membranes, Membrane
Rattus norvegicus [6] = experiment: Tested for the dose at which depressor response attenuated by intravenous administration in conscious rat; assay type: functional
Oryctolagus cuniculus [7] = species: Oryctolagus cuniculus; experiment: Tested for inhibition of ET-1 induced contractile response in isolated rabbit aorta at the concentration of 10 uM; assay type: functional
[8] = molecular target: Voltage-gated L-type calcium channel (Rattus norvegicus, UniProt P22002+Q02485+P27732); experiment: Inhibition of [3H]PN-200-110 binding to L-type calcium channels in rat cortex membranes.; assay type: cell membranes, Membrane
[9] = The half-life period was reported.; assay type: ADME
Endothelin-1 receptor [10] = molecular target: T1, Endothelin-1 receptor; experiment: Tested for its ability to inhibit the binding of [125I]ET1 to the Endothelin A receptor in porcine thoracic aorta membranes.; assay type: cell membranes
[11] = Tested for inhibition of ET-1 induced phosphoinositide (PI) turnover in A7r5 smooth muscle cells; assay type: functional, cell-based; settings: Rattus norvegicus
Rattus norvegicus [12] = experiment: Tested for the dose at which pressor response abolished by intravenous administration; assay type: functional
Oryctolagus cuniculus [13] = species: Oryctolagus cuniculus; experiment: Tested for inhibition of ET-1 induced contractile response in isolated rabbit aorta at the concentration of 1 uM; assay type: functional
Oryctolagus cuniculus [14] = species: Oryctolagus cuniculus; experiment: Tested for inhibition of ET-1 induced contractile response in isolated rabbit aorta at the concentration of 0.1 uM; assay type: functional

Q: What does the source list for `COC(=O)C1=C(C)N=C(C)/C(=C(/O)OC(=O)C2=C(C)N=C(C)/C(=C(/O)OC)[C@@H]2c2cccc([N+](=O)[O-])c2)[C@H]1c1cccc([N+](=O)[O-])c1`?
A: IC50 (Endothelin-1 receptor [1]): 422 nM; IC50 [2]: 2700 nM

Q: For `COC(=O)C1=C(C)N=C(C)/C(=C(/O)OC(=O)C2=C(C)N=C(C)/C(=C(/O)OC)[C@H]2c2cccc([N+](=O)[O-])c2)[C@@H]1c1cccc([N+](=O)[O-])c1`, which IC50 [3] is on record?
A: Its IC50 is “Not Active”.

Q: What about the IC50 (Endothelin-1 receptor [4]) of the same compound?
A: The IC50 was “Not Active”.

Q: With `COC(=O)C1=C(C)N=C(C)/C(=C(/O)OC(=O)C2=C(C)N=C(C)/C(=C(/O)OC)[C@@H]2c2cccc([N+](=O)[O-])c2)[C@@H]1c1cccc([N+](=O)[O-])c1` as the compound, how does the IC50 [5] read?
A: Its IC50 is 295 nM.

Q: What about the Dose (Rattus norvegicus [6]) of the same compound?
A: The Dose was 0.25 nM/kg.

Q: And the inhibition at 10 µM (Oryctolagus cuniculus [7])?
A: Its inhibition at 10 µM is 77%.

Q: What about the IC50 [8] of the same compound?
A: Its IC50 is 592 nM.

Q: What about the half-life [9] of the same compound?
A: The half-life was under 1 h.

Q: What about the IC50 (Endothelin-1 receptor [10]) of the same compound?
A: Its IC50 is 15.9 nM.

Q: And the EC50 [11]?
A: Its EC50 is 143 nM.

Q: And the Dose (Rattus norvegicus [12])?
A: Its Dose is 10 mg/kg.

Q: What about the inhibition at 1 µM (Oryctolagus cuniculus [13]) of the same compound?
A: Its inhibition at 1 µM is 42%.

Q: What about the inhibition at 0.1 µM (Oryctolagus cuniculus [14]) of the same compound?
A: Its inhibition at 0.1 µM is 33%.
